# In patent publication US12600721B2, “TYK2 inhibitors and uses thereof” (Sudo Biosciences Limited, priority 2021, dated 2026):
# pIC50: −log10 of the molar value.
# Assays:
# JAK3-JH1 = target: T1, JAK3-JH1 (Homo sapiens, UniProt P52333); test: HTRF-based selectivity assay, JAK3 catalytic domain; format: biochemical; conditions: kinase domain (JH1), 2.12 μM ATP
# T1 construct: using a recombinant purified His or GST-tagged catalytic domain for each enzyme; purchased Carna biosciences 08-046
# Protocol: (§1) The ability of compounds to inhibit the activity of JAK1, JAK2, JAK3 and TYK2 is measured using a recombinant purified His or GST-tagged catalytic domain for each enzyme (JAK1, JAK2 and TYK2 are generated in-house; JAK3 was purchased from Carna biosciences, Cat #08-046) in an HTRF format biochemical assay. The reactions employs a commercial peptide substrate from Cisbio (Cat #62TK0PEC). The basic assay protocol is as follows: first, 2.5 μL of diluted compounds (4×) in DMSO are dispensed into a 384-well Optiplate. Next, 2.5 μL of enzyme (final concentrations for enzymes are: TYK2-700 ng/mL, JAK1-80.6 ng/ml, JAK2-2.1 ng/ml and JAK3-171.8 ng/mL) is added and incubated at RT for 5-20 min. Finally, 5 μl of mixture of 2×ATP [Final concentration 20 μM for TYK2, 21.43 μM for JAK1, 14.7 μM for JAK2 and 2.12 μM for JAK3]+2× Substrate [Final concentration 217 nM for TYK2, 454.7 nM for JAK1, 200 nM for JAK2 and 257.4 nM for JAK3] is added to 384 well Optiplate. Composition of Kinase assay buffer used in the assay is as follows: HEPES 50 mM, EGTA 1 mM, MgCl2 10 mM, DTT 2 mM, Tween-20 0.01% and water. Then the plates are shaken and then incubated at 26.5° C. for 60 min.
# [1] = tested on: HEK-Blue IL-2 reporter cells; test: HEK-Blue IL-2 reporter assay (SEAP) for determining selectivity; format: cell-based; conditions: HEK-Blue IL-2 cells, 4 ng/ml human recombinant IL-2, SEAP reporter
# Protocol: (§2) HEK-Blue™ IL-2 and IFNγ reporter cells with a stably-integrated cytokine receptor and STAT5 or STAT1 express STAT-inducible secreted embryonic alkaline phosphatase (SEAP) reporter gene upon cytokine stimulation. These cells were plated in DMEM (Gibco) containing 10% heat-inactivated FBS (Gibco) and 100 U/mL PenStrep (Gibco) at 37° C. under 5% CO2 conditions for 20-22 hours. The cells were then pretreated with serially diluted test compounds for 60 min prior to stimulation with either 4 ng/ml human recombinant IL-2 (Miltenyl Biotech) or 50 ng/ml human recombinant IFNγ (InvivoGen) for 24 hours. SEAP induction was measured using the QUANTI-Blue™ Solution (InvivoGen) according to the manufacturer's instructions.
# [2] = tested on: HEK-Blue IFNγ reporter cells; test: HEK-Blue IFNγ reporter assay (SEAP) for determining selectivity; format: cell-based; conditions: 50 ng/ml human recombinant IFNγ, read-out: IFN-γ IC50 (SEAP selectivity)
# Protocol: as §2
# TYK2 Pseudokinase (JH2) [3] = test: HEK-Blue IL-23 reporter assay (SEAP) for profiling TYK2 pseudokinase (JH2) inhibition; format: cell-based; conditions: HEK-Blue IL-23 cells, 10 ng/mL human recombinant IL-23, SEAP reporter; read-out: IL23 IC50 (TYK2 inhibitory activity)
# Protocol: (§3) HEK-Blue™ IL-23 and IFNα/β cells with a stably-integrated cytokine receptor and STAT3 or STAT1 express STAT-inducible secreted embryonic alkaline phosphatase (SEAP) reporter gene upon cytokine stimulation. These cells are plated in DMEM (Gibco) containing 10% heat-inactivated FBS (Gibco) and 100 U/mL PenStrep (Gibco) at 37° C. under 5% CO2 conditions for 20-22 hours. The cells are then pretreated with serially diluted test compounds for 60 min prior to stimulation with either 10 ng/mL human recombinant IL-23 (Miltenyl Biotech) or 1 ng/mL human recombinant IFNα (InvivoGen) for 22-24 hours for IL-23 or 16-18 h for IFNα. SEAP induction is measured using the QUANTI Blue™ Solution (InvivoGen) according to the manufacturer's instructions.
# JAK1-JH1 = target: T2, JAK1-JH1 (Homo sapiens, UniProt P23458); test: HTRF-based selectivity assay, JAK1 catalytic domain; format: biochemical; conditions: kinase domain (JH1), 21.43 μM ATP
# T2 construct: using a recombinant purified His or GST-tagged catalytic domain for each enzyme; made in house
# Protocol: as §1
# TYK2-JH1 = target: T3, TYK2-JH1 (Homo sapiens, UniProt P29597); test: HTRF-based selectivity assay, TYK2 catalytic domain; format: biochemical; conditions: kinase domain (JH1), 20 μM ATP
# T3 construct: using a recombinant purified His or GST-tagged catalytic domain for each enzyme; made in house
# T3 sequence (P29597 897-1176 limits assumed): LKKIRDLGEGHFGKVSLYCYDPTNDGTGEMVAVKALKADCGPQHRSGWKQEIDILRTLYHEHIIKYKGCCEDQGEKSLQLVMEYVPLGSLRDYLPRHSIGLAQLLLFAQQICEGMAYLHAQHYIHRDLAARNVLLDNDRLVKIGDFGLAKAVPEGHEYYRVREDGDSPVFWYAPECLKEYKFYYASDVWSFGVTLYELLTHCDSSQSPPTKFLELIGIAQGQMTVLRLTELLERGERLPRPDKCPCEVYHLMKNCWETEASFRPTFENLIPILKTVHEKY
# Protocol: as §1
# JAK2-JH1 = target: T4, JAK2-JH1 (Homo sapiens, UniProt O60674); test: HTRF-based selectivity assay, JAK2 catalytic domain; format: biochemical; conditions: kinase domain (JH1), 14.7 μM ATP
# T4 construct: using a recombinant purified His or GST-tagged catalytic domain for each enzyme; made in house
# Protocol: as §1
# TYK2 Pseudokinase (JH2) [4] = test: HEK-Blue IFNα/β reporter assay (SEAP) for profiling TYK2 pseudokinase (JH2) inhibition; format: cell-based; conditions: HEK-Blue IFNα/β cells, 1 ng/mL human recombinant IFNα, read-out: IFNα IC50 (TYK2 inhibitory activity)
# Protocol: as §3
# T1 sequence (P52333 822-1111 limits assumed): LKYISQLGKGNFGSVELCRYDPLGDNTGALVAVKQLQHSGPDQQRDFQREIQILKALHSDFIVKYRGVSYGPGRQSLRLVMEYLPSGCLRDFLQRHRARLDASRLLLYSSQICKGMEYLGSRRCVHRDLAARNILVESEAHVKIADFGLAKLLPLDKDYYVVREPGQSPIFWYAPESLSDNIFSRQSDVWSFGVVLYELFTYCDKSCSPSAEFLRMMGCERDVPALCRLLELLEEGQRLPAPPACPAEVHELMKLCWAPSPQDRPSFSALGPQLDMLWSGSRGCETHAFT
# T2 sequence (P23458 875-1153 limits assumed): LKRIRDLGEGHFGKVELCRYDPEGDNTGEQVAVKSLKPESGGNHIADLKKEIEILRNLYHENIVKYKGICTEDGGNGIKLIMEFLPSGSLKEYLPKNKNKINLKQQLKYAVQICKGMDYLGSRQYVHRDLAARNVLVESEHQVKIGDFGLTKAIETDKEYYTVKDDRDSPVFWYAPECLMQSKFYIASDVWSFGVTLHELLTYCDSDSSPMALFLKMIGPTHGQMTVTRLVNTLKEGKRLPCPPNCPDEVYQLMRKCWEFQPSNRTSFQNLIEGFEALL
# T4 sequence (O60674 849-1124 limits assumed): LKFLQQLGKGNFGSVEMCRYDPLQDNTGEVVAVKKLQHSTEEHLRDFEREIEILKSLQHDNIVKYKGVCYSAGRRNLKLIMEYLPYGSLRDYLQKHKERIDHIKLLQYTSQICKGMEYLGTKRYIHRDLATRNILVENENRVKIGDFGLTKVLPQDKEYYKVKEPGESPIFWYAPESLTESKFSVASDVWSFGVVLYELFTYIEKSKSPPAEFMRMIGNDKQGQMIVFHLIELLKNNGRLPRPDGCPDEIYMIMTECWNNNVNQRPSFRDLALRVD
pIC50 (JAK3-JH1),pIC50 (TYK2 Pseudokinase (JH2) [3]),pIC50 (JAK1-JH1),pIC50 (TYK2-JH1),pIC50 (JAK2-JH1),pIC50 (TYK2 Pseudokinase (JH2) [4]),Structure (SMILES),pIC50 [1],pIC50 [2]
< 6.00,> 7.52,< 6.00,< 6.00,< 6.00,> 7.52,"[2H]C([2H])([2H])NC(=O)c1nnc(NC(=O)C2CC2)cc1Nc1cccc2c1N(C)Cc1cccnc1-2 [Compound 1, 6-(cyclopropanecarboxamido)-N-(methyl-d3)-4-((6-methyl-5,6-dihydrobenzo[h][1,6]naphthyridin-7-yl)amino)pyridazine-3-carboxamide]",< 6.00,< 6.00
< 6.00,> 7.52,< 6.00,< 6.00,< 6.00,> 7.52,"[2H]C([2H])([2H])NC(=O)c1cnc(NC(=O)C2CC2)cc1Nc1cccc2c1N(C)Cc1cccnc1-2 [Compound 3, 6-(cyclopropanecarboxamido)-N-(methyl-d3)-4-((6-methyl-5,6-dihydrobenzo[h][1,6]naphthyridin-7-yl)amino)nicotinamide]",< 6.00,< 6.00
< 6.00,> 7.52,6.00 to 6.52,< 6.00,< 6.00,> 7.52,"[2H]C([2H])([2H])NC(=O)c1cnc(NC(=O)C2CC2)cc1Nc1cccc2c1N(C)Cc1cncnc1-2 [Compound 4, 6-(cyclopropanecarboxamido)-N-(methyl-d3)-4-((6-methyl-5,6-dihydropyrimido[5,4-c]quinolin-7-yl)amino)nicotinamide]",< 6.00,< 6.00
–,> 7.52,–,–,–,> 7.52,"CNC(=O)c1cnc(NC(=O)C2CC2)cc1Nc1cccc2c1N(C)Cc1cccnc1-2 [Compound 15, 6-(cyclopropanecarboxamido)-N-methyl-4-((6-methyl-5,6-dihydrobenzo[h][1,6]naphthyridin-7-yl)amino)nicotinamide]",< 6.00,6.52 to 7.52
–,> 7.52,–,–,–,> 7.52,"[2H]C([2H])([2H])NC(=O)c1cnc(NC(=O)C2CC2)cc1Nc1nccc2c1N(C)Cc1cccnc1-2 [Compound 19, 6-(cyclopropanecarboxamido)-N-(methyl-d3)-4-((6-methyl-5,6-dihydropyrido[3,4-h][1,6]naphthyridin-7-yl)amino)nicotinamide]",< 6.00,6.00 to 6.52
–,> 7.52,–,–,–,> 7.52,"[2H]C([2H])([2H])NC(=O)c1cnc(NC(=O)C2CC2)cc1Nc1cccc2c1N(C)C([2H])([2H])c1cccnc1-2 [Compound 20, 6-(cyclopropanecarboxamido)-N-(methyl-d3)-4-((6-methyl-5,6-dihydrobenzo[h][1,6]naphthyridin-7-yl-5,5-d2)amino)nicotinamide]",< 6.00,6.52 to 7.52
–,> 7.52,–,–,–,6.52 to 7.52,"[2H]C([2H])([2H])NC(=O)c1cnc(NC(=O)C2CC2)cc1Nc1cccc2c1N(C)C([2H])([2H])c1cc(F)cnc1-2 [Compound 22, 6-(cyclopropanecarboxamido)-4-((3-fluoro-6-methyl-5,6-dihydrobenzo[h][1,6]naphthyridin-7-yl-5,5-d2)amino)-N-(methyl-d3)nicotinamide]",–,–
–,> 7.52,–,–,–,6.52 to 7.52,"[2H]C([2H])([2H])NC(=O)c1cnc(NC(=O)C2CC2)cc1Nc1cccc2c1N(C)C([2H])([2H])c1ccc(C)nc1-2 [Compound 24, 6-(cyclopropanecarboxamido)-4-((2,6-dimethyl-5,6-dihydrobenzo[h][1,6]naphthyridin-7-yl-5,5-d2)amino)-N-(methyl-d3)nicotinamide]",< 6.00,< 6.00

# The remaining lines, values behind:
Structure (SMILES),pIC50 (JAK3-JH1),pIC50 (TYK2 Pseudokinase (JH2) [3]),pIC50 (JAK1-JH1),pIC50 (TYK2-JH1),pIC50 (JAK2-JH1),pIC50 (TYK2 Pseudokinase (JH2) [4]),pIC50 [1],pIC50 [2]
"[2H]C([2H])([2H])NC(=O)c1nnc(Nc2ccc(F)cn2)cc1Nc1cccc2c1N(C)Cc1cccnc1-2 [Compound 2, 6-((5-fluoropyridin-2-yl)amino)-N-(methyl-d3)-4-((6-methyl-5,6-dihydrobenzo[h][1,6]naphthyridin-7-yl)amino)pyridazine-3-carboxamide]",< 6.00,> 7.52,< 6.00,< 6.00,< 6.00,> 7.52,< 6.00,< 6.00
"[2H]C([2H])([2H])NC(=O)c1cnc(NC(=O)C2CC2)cc1Nc1nccc2c1N(C)Cc1nccnc1-2 [Compound 14, 6-(cyclopropanecarboxamido)-N-(methyl-d3)-4-((6-methyl-5,6-dihydropyrazino[2,3-c][1,7]naphthyridin-7-yl)amino)nicotinamide]",–,> 7.52,–,–,–,> 7.52,< 6.00,–
"[2H]C([2H])([2H])NC(=O)c1nnc(NC(=O)C2CC2)cc1Nc1cccc2c1N(C)C([2H])([2H])c1cc(F)cnc1-2 [Compound 21, 6-(cyclopropanecarboxamido)-4-((3-fluoro-6-methyl-5,6-dihydrobenzo[h][1,6]naphthyridin-7-yl-5,5-d2)amino)-N-(methyl-d3)pyridazine-3-carboxamide]",–,> 7.52,–,–,–,6.52 to 7.52,6.00 to 6.52,6.52 to 7.52
"[2H]C([2H])([2H])NC(=O)c1nnc(NC(=O)C2CC2)cc1Nc1cccc2c1N(C)C([2H])([2H])c1ccc(C)nc1-2 [Compound 23, 6-(cyclopropanecarboxamido)-4-((2,6-dimethyl-5,6-dihydrobenzo[h][1,6]naphthyridin-7-yl-5,5-d2)amino)-N-(methyl-d3)pyridazine-3-carboxamide]",–,> 7.52,–,–,–,> 7.52,< 6.00,6.52 to 7.52
"[2H]C([2H])([2H])NC(=O)c1cnc(NC(=O)C2CC2)cc1Nc1cccc2c1N(C)C([2H])([2H])c1ccc(C(F)(F)F)nc1-2 [Compound 25, 6-(cyclopropanecarboxamido)-N-(methyl-d3)-4-((6-methyl-2-(trifluoromethyl)-5,6-dihydrobenzo[h][1,6]naphthyridin-7-yl-5,5-d2)amino)nicotinamide]",–,6.52 to 7.52,–,–,–,6.00 to 6.52,–,–
"[2H]C([2H])([2H])NC(=O)c1nnc(NC(=O)C2CC2)cc1Nc1cccc2c1N(C)C([2H])([2H])c1ccc(C(F)(F)F)nc1-2 [Compound 26, 6-(cyclopropanecarboxamido)-N-(methyl-d3)-4-((6-methyl-2-(trifluoromethyl)-5,6-dihydrobenzo[h][1,6]naphthyridin-7-yl-5,5-d2)amino)pyridazine-3-carboxamide]",–,6.00 to 6.52,–,–,–,< 6.00,< 6.00,6.52 to 7.52
